Test results as given in patent US3970643A, “5"-Amino-3',5"-dideoxybutirosin A and derivatives” (Parke, Davis & Company, priority 1975, dated 1976).
In brackets after ≈: the same amount, converted by molar mass.

Tests used:
Experiment in all cases: MIC, microtitration in TSB, in vitro antibacterial screening
Format in all cases: cell-based
Pseudo. aerug. 130 = settings: Pseudomonas aeruginosa, Pseudo. aerug. 130, gentamicin resistant
From the text: (§1) They show activity when tested by well-recognized in vitro anti-bacterial screening procedures.
^c Gentamicin resistant

Esch. coli JR-76.2 = settings: Escherichia coli, JR76.2
From the text: as §1
(§2) ^b Butirosin and Gentamicin resistant

Pseudo. aerug. G-76 = settings: Pseudomonas aeruginosa, Pseudo. aerug. G-76, butirosin and gentamicin resistant
From the text: as §1, §2

Pseudo. aerug. 74C-1 = settings: Pseudomonas aeruginosa
From the text: as §1

Klebs. pneumoniae MGH-1 = settings: Klebsiella pneumoniae, MGH1
From the text: as §1

Pseudo. aerug. No. 28 = settings: Pseudomonas aeruginosa
From the text: as §1

Serr. marcescens IMM-5 = settings: Serratia marcescens, IMM5
From the text: as §1

Pseudo. aerug. LA-3399 = settings: Pseudomonas aeruginosa
From the text: as §1

Pseudo. aerug. VAD12-7-7 = settings: Pseudomonas aeruginosa
From the text: as §1

Pseudo. aerug. UI-18 = settings: Pseudomonas aeruginosa
From the text: as §1

Pseudo. aerug. 733 = settings: Pseudomonas aeruginosa
From the text: as §1

Pseudo. aerug. 58.38 = settings: Pseudomonas aeruginosa
From the text: as §1

Pseudo. aerug. Aquilar = settings: Pseudomonas aeruginosa, butirosin resistant
From the text: as §1

Entero. cloacae IMM-50 = settings: Enterobacter cloacae, IMM50
From the text: as §1

Staph auretis S18713 = settings: Staph auretis S18713, butirosin resistant
From the text: as §1

## NCC[C@H](O)C(=O)N[C@@H]1C[C@H](N)[C@@H](O[C@H]2O[C@H](CN)[C@@H](O)C[C@H]2N)[C@H](O[C@@H]2O[C@H](CN)[C@H](O)[C@H]2O)[C@H]1O [I carbonate, 5"-amino-3',5"-dideoxybutirosin A]
Pseudo. aerug. 130
  MIC: 6.3 µg/mL (≈ 11.7 µM)
Esch. coli JR-76.2
  MIC: 25 µg/mL (≈ 46.4 µM)
Pseudo. aerug. G-76
  MIC: 12.5 µg/mL (≈ 23.2 µM)
Pseudo. aerug. 74C-1
  MIC: 3.1 µg/mL (≈ 5.76 µM)
Klebs. pneumoniae MGH-1
  MIC: 6.3 µg/mL (≈ 11.7 µM)
Pseudo. aerug. No. 28
  MIC: 1.6 µg/mL (≈ 2.97 µM)
Serr. marcescens IMM-5
  MIC: 25 µg/mL (≈ 46.4 µM)
Pseudo. aerug. LA-3399
  MIC: 12.5 µg/mL (≈ 23.2 µM)
Pseudo. aerug. VAD12-7-7
  MIC: 3.1 µg/mL (≈ 5.76 µM)
Pseudo. aerug. UI-18
  MIC: 3.1 µg/mL (≈ 5.76 µM)
Pseudo. aerug. 733
  MIC: 3.1 µg/mL (≈ 5.76 µM)
Pseudo. aerug. 58.38
  MIC: 3.1 µg/mL (≈ 5.76 µM)
Pseudo. aerug. Aquilar
  MIC: 12.5 µg/mL (≈ 23.2 µM)
Entero. cloacae IMM-50
  MIC: 6.3 µg/mL (≈ 11.7 µM)
Staph auretis S18713
  MIC: 3.1 µg/mL (≈ 5.76 µM)
